In patent US12268676B2, “Antiviral applications of picolinic acid and its derivatives” (INDIAN INSTITUTE OF SCIENCE, priority 2021, dated 2025):

Test system: SARS-CoV-2 variants of concern (Alpha, Beta, Gamma, Delta)
Format: cell-based

Question: `O=C(O)c1ccccn1` [PA, pyridine-2-carboxylic acid] was tested. Which “viral load abrogated by” value did it give?
Answer: ~1 log
